The data set is described as follows: Stability of lorazepam with ODT excipients and coatings.

`O=C1Nc2ccc(Cl)cc2C(c2ccccc2Cl)=NC1O` (centres unmarked) [lorazepam, 7-chloro-5-(2-chlorophenyl)-1,3-dihydro-3-hydroxy-2H-1,4-benzodiazepin-2-one]: the stability when coated entry (lorazepam coated with EUDRAGIT® E-100) was “unstable”. Also, where the note is “with mannitol and super disintegrants such as crosslinked PVP”, the “stability with ODT excipients” value was “unstable”.
